Reference: the OligoGym collection
These antisense oligonucleotides have a phosphorothioate backbone; sugars and methylation of C are not fully specified.

Target: TRADD
Settings: ASO
Also: test concentration or dose not given here.

Sequence	remaining target (mRNA or protein) (fraction of control)
CTCACCTCCTGGCCGCCT	0.76
TGGGCTAGGATGCAACTC	0.67
ACTTTATTATCATTGCTT	0.66
CCCCGAGCCGCACTTCAG	0.77
GACCCTGGAACAGAAAAG	0.9
GTGCGCGTAGGCATCCGA	≥ 1
TCACTACAGGCTGACCCT	0.74
CTGTTTTACTTCACTGCA	≥ 1
CCCGCCGCTCTCTGCCAA	≥ 1
CGGTCGGGCTGCTGGGCT	≥ 1
TCCAGGTTCTCCAAAAGC	0.46
TGCGGGTCGCTGCGGTGG	0.69
AGTGCTGGGCGAGCGCGG	≥ 1
GAGGCAGAATCCCCAATG	≥ 1
GGGAAGGCAATCAACTCT	≥ 1
GGAACAGAAAAGTCTGGG	0.93
GGATCTTCAGCATCTGCA	≥ 1
TCTGTTGGTCCTTCAGGC	≥ 1
GCCGCACTTCAGATTTCG	≥ 1
AAAGATCAAGGTGCTTCA	≥ 1
AAACTGTAAGGGCTGGCT	0.91
GGATGGGAGAAGGTGAGG	0.55
GGTTCCCACGCCCGCCAG	≥ 1
AGTTGCAGCGGCACCGAG	≥ 1

Sequence	remaining target (mRNA or protein) (fraction of control)
TCCTCTGCCAGGCTGGTG	≥ 1
GGTATGCGCTGCCCACCC	≥ 1
GCACGAAGCGCCGCAGCA	≥ 1
CCACCTTGTCCAGCGAGG	0.59
GCTGCTGGGCTAGGATGC	0.84
GTCCAGCGAGGACTCCAC	0.36
CGTAGGCCAGCGAGTCCA	≥ 1
GAGTCCAGCGCCGGGTCC	0.48
TCAGGGTCCCGTGGATGG	≥ 1
AAAGTCTGGGCAGGTGGC	0.56
CGATTCACTACAGGCTGA	0.86
GGAGGAAGCGGCCACAGG	0.68
GCGTAGGCATCCGACAGG	0.97
CTCTTCGTGCCCATTTTG	0.89
CAGGCCGCCATTGGGATC	≥ 1
GCTCGTACTCGTAGGCCA	≥ 1
CATTTGAGACCCACAGAG	0.83
GGGCAGGTGGCGGCGGCG	0.7
GCATCCGACAGGACCACC	0.93
CGCAGCGCATCCTCCAGC	0.99
CTTGCGCCATTTGAGACC	0.7
CCGAAGCGACCTCCCCGT	≥ 1
CCCAGCAAGTCCTCTGCC	0.75
TGCGGTGGATCTTCAGCA	≥ 1

Sequence	remaining target (mRNA or protein) (fraction of control)
ATGAAGTCCAGGACACCA	≥ 1
AGTGAGCGCCCCACCTTG	0.98
CAGCGCCCGGCAGCCTCG	≥ 1
TAGGCCAAGTGGAGTTTC	0.58
CCCACCCCACACTCTATC	0.47
TCCACAAACAGGTATGCG	≥ 1
GCAGGTCCAGCAGATAGG	0.9
AGCTGCCATCTCACCTCC	≥ 1
GTCCTTCAGGCTCAGCGG	0.75
AGATTTCGCAGCGCATCC	≥ 1
AAGGTGAGGCTGATCTCC	0.72
TCAGCCAGTTCTTCATCC	≥ 1
ACCCTAAGGCCATCCAGG	0.64
GATGCAACTCAAACAGCG	≥ 1
CACCCACTCTTCGTGCCC	≥ 1
CAAGATTGATTCCTGTTT	0.94
GCTGCCCACCCACTCTTC	≥ 1
GAGGACTCCACAAACAGG	0.93
TGGCTGCACCCCTGGTCT	≥ 1
GGTGGCGGCGGCGGCGGC	0.99
CCCTCGCGCTCGTACTCG	0.42
GCCCGCAGAATCGCAGCT	0.75
GCCAGCAAAGCGTCCAGC	≥ 1
